Test results published in patent US20010044445A1, “AZOLE INHIBITORS OF CYTOKINE PRODUCTION” (priority 1999, published 2001).

Experiments:
[1] = system: Human peripheral blood mononuclear cells; assay: Human Concanavalin-A Proliferation Assay (Con HU Assay); format: cell-based; settings: concanavalin-A stimulated human PBMC; for inhibition at 10 µM / IC50 / inhibition at 1 µM: Homo sapiens, PBMC; for inhibition at 10 µM / inhibition at 1 µM: 72 h, read-out: % Inhibition of proliferation (at concentrations of 1,10, or 100 μm); for inhibition at 10 µM: concentration 10 μm (in parentheses in the cell); for IC50: tritiated thymidine
Outline: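 Histopaque-isolated human PBMC (50,000/well) were pre-incubated 15 min with compounds, then stimulated with concanavalin-A at 2.5 μg/ml final for 3 days at 37 °C, 5% CO2. Proliferation measured by 6 h pulse with 0.5 μCi/well [3H]thymidine and beta counting.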

[2] = concentration 1 μm (in parentheses in the cell), 3 days

Structure (SMILES) | % Inhibition of proliferation (at concentrations of 1,10, or 100 μm) [1, 2] | melting point [°C] | inhibition at 10 µM ([1]; 3 days) [%] | IC50 [1] [µM] | inhibition at 1 µM [1, 2] [%]
CC(C(=O)Nc1ccc(-n2nc(C(F)(F)F)cc2C(F)(F)F)cc1)c1ccc(C(=O)c2cccs2)cc1 (stereo not drawn) [Example 178, N-[4-[3,5-bis(trifluoromethyl)-1H-pyrazol-1-yl]phenyl]-α-methyl-4-(2-thienylcarbonyl)benzeneacetamide] | 14(1) % | < 100 | – | – | –
O=C(Nc1ccc(-n2nc(C(F)(F)F)cc2C(F)(F)F)cc1)c1ccc(O)c([N+](=O)[O-])c1 [Example 180, N-[4-[3,5-bis(trifluoromethyl)-1H-pyrazol-1-yl]phenyl]-4-hydroxy-3-nitrobenzamide] | – | 193 to 194 | 95 | 2.87 | –
O=C(Nc1ccc(-n2nc(C(F)(F)F)cc2C(F)(F)F)cc1)c1ccc(O)c(O)c1 [Example 181, N-[4-[3,5-bis(trifluoromethyl)-1H-pyrazol-1-yl]phenyl]-3,4-dihydroxybenzamide] | – | 233 to 235 | 100 | 2.24 | –
COc1cccc(O)c1C(=O)Nc1ccc(-n2nc(C(F)(F)F)cc2C(F)(F)F)cc1 [Example 182, N-[4-[3,5-bis(trifluoromethyl)-1H-pyrazol-1-yl]phenyl]-2-hydroxy-6-methoxybenzamide] | – | 114 to 116 | 83 | 4.67 | –
O=C(Nc1ccc(-n2nc(C(F)(F)F)cc2C(F)(F)F)cc1)c1ccc(C(F)(F)F)cc1C(F)(F)F [Example 183, N-[4-[3,5-bis(trifluoromethyl)-1H-pyrazol-1-yl]phenyl]-2,4-bis(trifluoromethyl)benzamide] | – | 200 to 201 | 94 | 0.542 | –
Cc1oncc1C(=O)Nc1ccc(-n2nc(C(F)(F)F)cc2C(F)(F)F)cc1 [Example 184, N-[4-[3,5-bis(trifluoromethyl)-1H-pyrazol-1-yl]phenyl]-5-methyl-4-isoxazolecarboxamide] | – | 163 to 167 | 90 | 0.42 | –
O=C(Nc1ccccc1Cl)c1ccc(-n2nc(C(F)(F)F)cc2C(F)(F)F)cc1 [Example 185, 4-[3,5-Bis(trifluoromethyl)-1H-pyrazol-1-yl]-N-(2-chlorophenyl)benzamide] | – | 162 to 164 | – | – | 26
N#Cc1cccc(NC(=O)c2ccc(-n3nc(C(F)(F)F)cc3C(F)(F)F)cc2)c1 [Example 186, 4-[3,5-Bis(trifluoromethyl)-1H-pyrazol-1-yl]-N-(3-cyanophenyl)benzamide] | – | 195 to 196 | – | – | 14
O=C(Nc1ccc(F)cc1F)c1ccc(-n2nc(C(F)(F)F)cc2C(F)(F)F)cc1 [Example 187, 4-[3,5-Bis(trifluoromethyl)-1H-pyrazol-1-yl]-N-(2,4-difluorophenyl)benzamide] | – | 176 to 177 | – | 0.362 | 86
N#Cc1ccccc1NC(=O)c1ccc(-n2nc(C(F)(F)F)cc2C(F)(F)F)cc1 [Example 188, 4-[3,5-Bis(trifluoromethyl)-1H-pyrazol-1-yl]-N-(2-cyanophenyl)benzamide] | – | 203 to 205 | 87 | 0.485 | –
Cc1nc(C)n(-c2ccc(NC(=O)c3c(C)noc3C)cc2)n1 [Example 189, 3,5-dimethyl-N-[4-(3,5-dimethyl-1H-1,2,4-triazol-1-yl)phenyl]-4-isoxazolecarboxamide] | – | 170 to 171 | – | – | 24
O=C(Nc1ccccc1[N+](=O)[O-])c1ccc(-n2nc(C(F)(F)F)cc2C(F)(F)F)cc1 [Example 190, 4-[3,5-Bis(trifluoromethyl)-1H-pyrazol-1-yl]-N-(2-nitrophenyl)benzamide] | – | 173 to 175 | – | – | 3
O=C(Nc1c(F)cccc1F)c1ccc(-n2nc(C(F)(F)F)cc2C(F)(F)F)cc1 [Example 191, 4-[3,5-Bis(trifluoromethyl)-1H-pyrazol-1-yl]-N-(2,6-difluorophenyl)benzamide] | – | 187 to 188 | – | 0.116 | 99
N#Cc1ccc(NC(=O)c2ccc(-n3nc(C(F)(F)F)cc3C(F)(F)F)cc2)cc1 [Example 193, 4-[3,5-Bis(trifluoromethyl)-1H-pyrazol-1-yl]-N-(4-cyanophenyl)benzamide] | – | 192 to 193 | – | – | 8
O=C(Nc1ccncc1)c1ccc(-n2nc(C(F)(F)F)cc2C(F)(F)F)cc1 [Example 194, 4-[3,5-Bis(trifluoromethyl)-1H-pyrazol-1-yl]-N-(4-pyridinyl)benzamide] | – | 234 to 235 | – | – | 23
O=C(Nc1ccc(-n2nc(C(F)(F)F)cc2C(F)(F)F)cc1)c1ccc(F)c(C(F)(F)F)c1 [Example 195, N-[4-[3,5-bis(trifluoromethyl)-1H-pyrazol-1-yl]phenyl]-4-fluoro-3-(trifluoromethyl)benzamide] | – | 142 to 144 | – | – | 22

Structure (SMILES) | % Inhibition of proliferation (at concentrations of 1,10, or 100 μm) [1, 2] | melting point [°C] | inhibition at 10 µM ([1]; 3 days) [%] | IC50 [1] [µM] | inhibition at 1 µM [1, 2] [%]
NC(=O)c1ccccc1NC(=O)c1ccc(-n2nc(C(F)(F)F)cc2C(F)(F)F)cc1 [Example 196, N-[2-(aminocarbonyl)phenyl]-4-[3,5-bis(trifluoromethyl)-1H-pyrazol-1-yl]benzamide] | – | 195 to 196 | – | – | 11
O=C(Cc1ccc(Cl)cc1)Nc1cccc(-n2nc(C(F)(F)F)cc2C(F)(F)F)c1 [Example 197, N-[3-[3,5-bis(trifluoromethyl)-1H-pyrazol-1-yl]phenyl]-4-chlorobenzeneacetamide] | – | 209 to 211 | – | – | 1
O=C(Nc1cccc(-n2nc(C(F)(F)F)cc2C(F)(F)F)c1)c1cccc(Cl)c1Cl [Example 198, N-[3-[3,5-bis(trifluoromethyl)-1H-pyrazol-1-yl]phenyl]-2,3-dichlorobenzamide] | – | 119 to 121 | – | – | 4
O=C(Nc1cccc(-n2nc(C(F)(F)F)cc2C(F)(F)F)c1)c1cc([N+](=O)[O-])ccc1Cl [Example 199, N-[3-[3,5-bis(trifluoromethyl)-1H-pyrazol-1-yl]phenyl]-2-chloro-5-nitrobenzamide] | – | 147 to 152 | – | – | 30
O=C(Nc1ccc(-n2nc(C(F)(F)F)cc2C(F)(F)F)cc1)c1ccc(F)c([N+](=O)[O-])c1 [Example 200, N-[4-[3,5-bis(trifluoromethyl)-1H-pyrazol-1-yl]phenyl]-4-fluoro-3-nitrobenzamide] | – | 186 to 187 | – | – | 26
O=C(Nc1ccc(-n2nc(C(F)(F)F)cc2C(F)(F)F)cc1)c1ccc(F)cc1C(F)(F)F [Example 201, N-[4-[3,5-bis(trifluoromethyl)-1H-pyrazol-1-yl]phenyl]-4-fluoro-2-(trifluoromethyl)benzamide] | – | 178 to 179 | 100 | 0.364 | –
O=C(Nc1cccc(-n2nc(C(F)(F)F)cc2C(F)(F)F)c1)c1ccc(F)cc1 [Example 202, N-[3-[3,5-bis(trifluoromethyl)-1H-pyrazol-1-yl]phenyl]-4-fluorobenzamide] | – | 150 to 152 | – | – | 6
O=C(Nc1cccc(-n2nc(C(F)(F)F)cc2C(F)(F)F)c1)c1ccc(F)cc1F [Example 203, N-[3-[3,5-bis(trifluoromethyl)-1H-pyrazol-1-yl]phenyl]-2,4-difluorobenzamide] | – | 133 to 134 | – | – | 1
N#Cc1cccc(C(=O)Nc2cccc(-n3nc(C(F)(F)F)cc3C(F)(F)F)c2)c1 [Example 204, N-[3-[3,5-bis(trifluoromethyl)-1H-pyrazol-1-yl]phenyl]-3-cyanobenzamide] | – | 160 to 161 | – | – | 12
O=C(Nc1ccc(-n2nc(C(F)(F)F)cc2C(F)(F)F)cc1)c1ccc(F)cc1Cl [Example 206, N-[4-[3,5-bis(trifluoromethyl)-1H-pyrazol-1-yl]phenyl]-2-chloro-4-fluorobenzamide] | – | 155 to 157 | 100 | 0.061 | –
CS(=O)(=O)c1ccc(C(=O)Nc2ccc(-n3nc(C(F)(F)F)cc3C(F)(F)F)cc2)c(Cl)c1 [Example 207, N-[4-[3,5-bis(trifluoromethyl)-1H-pyrazol-1-yl]phenyl]-2-chloro-4-(methylsulfonyl)benzamide] | – | 219 to 220 | 100 | 0.372 | –
O=C(Nc1ccc(-n2nc(C(F)(F)F)cc2C(F)(F)F)cc1)c1cc(Cl)ccc1Cl [Example 208, N-[4-[3,5-bis(trifluoromethyl)-1H-pyrazol-1-yl]phenyl]-2,5-dichlorobenzamide] | – | 154 to 156 | 99 | 0.149 | –
O=C(Nc1ccc(-n2nc(C(F)(F)F)cc2C(F)(F)F)cc1)c1ccc(F)c(Cl)c1 [Example 210, N-[4-[3,5-bis(trifluoromethyl)-1H-pyrazol-1-yl]phenyl]-3-chloro-4-fluorobenzamide] | – | 138 to 139 | 100 | 0.239 | –
O=C(Nc1ccc(-n2nc(C(F)(F)F)cc2C(F)(F)F)cc1)c1cc(F)ccc1F [Example 211, N-[4-[3,5-bis(trifluoromethyl)-1H-pyrazol-1-yl]phenyl]-2,5-difluorobenzamide] | – | 168 to 169 | 98 | 0.039 | –
O=C(Nc1ccc(-n2nc(C(F)(F)F)cc2C(F)(F)F)cc1)c1c(F)cccc1Cl [Example 212, N-[4-[3,5-bis(trifluoromethyl)-1H-pyrazol-1-yl]phenyl]-2-chloro-6-fluorobenzamide] | – | 165 to 167 | 99 | 0.07 | –
